The target of one experiment is Bile salt export pump (Homo sapiens, UniProt O95342). The experiment is described as follows: Inhibition of human BSEP overexpressed in Sf9 cell membrane vesicles assessed as uptake of [3H]-taurocholate in presence of ATP measured after 15 to 20 mins by membrane vesicle transport assay. It is filed as ADME, cell-based.
Experiment [1] deals with ATP-binding cassette sub-family C member 2 (Homo sapiens, UniProt Q92887). The experiment is described as follows: Inhibition of human MRP2 overexpressed in Sf9 cell membrane vesicles assessed as uptake of [3H]-estradiol-17beta-D-glucuronide in presence of ATP and GSH measured after 20 mins by membrane vesicle transport assay.
In experiment [2] the target is ATP-binding cassette sub-family C member 3 (Homo sapiens, UniProt O15438). The experiment is described as follows: Inhibition of human MRP3 overexpressed in Sf9 insect cell membrane vesicles assessed as uptake of [3H]-estradiol-17beta-D-glucuronide in presence of ATP and GSH measured after 10 mins by membrane vesicle transport assay. The experiment is classed as ADME, cell-based.

The target in experiment [3] is T1, ATP-binding cassette sub-family C member 4 (Homo sapiens, UniProt O15439).
T1 sequence (O15439 whole entry): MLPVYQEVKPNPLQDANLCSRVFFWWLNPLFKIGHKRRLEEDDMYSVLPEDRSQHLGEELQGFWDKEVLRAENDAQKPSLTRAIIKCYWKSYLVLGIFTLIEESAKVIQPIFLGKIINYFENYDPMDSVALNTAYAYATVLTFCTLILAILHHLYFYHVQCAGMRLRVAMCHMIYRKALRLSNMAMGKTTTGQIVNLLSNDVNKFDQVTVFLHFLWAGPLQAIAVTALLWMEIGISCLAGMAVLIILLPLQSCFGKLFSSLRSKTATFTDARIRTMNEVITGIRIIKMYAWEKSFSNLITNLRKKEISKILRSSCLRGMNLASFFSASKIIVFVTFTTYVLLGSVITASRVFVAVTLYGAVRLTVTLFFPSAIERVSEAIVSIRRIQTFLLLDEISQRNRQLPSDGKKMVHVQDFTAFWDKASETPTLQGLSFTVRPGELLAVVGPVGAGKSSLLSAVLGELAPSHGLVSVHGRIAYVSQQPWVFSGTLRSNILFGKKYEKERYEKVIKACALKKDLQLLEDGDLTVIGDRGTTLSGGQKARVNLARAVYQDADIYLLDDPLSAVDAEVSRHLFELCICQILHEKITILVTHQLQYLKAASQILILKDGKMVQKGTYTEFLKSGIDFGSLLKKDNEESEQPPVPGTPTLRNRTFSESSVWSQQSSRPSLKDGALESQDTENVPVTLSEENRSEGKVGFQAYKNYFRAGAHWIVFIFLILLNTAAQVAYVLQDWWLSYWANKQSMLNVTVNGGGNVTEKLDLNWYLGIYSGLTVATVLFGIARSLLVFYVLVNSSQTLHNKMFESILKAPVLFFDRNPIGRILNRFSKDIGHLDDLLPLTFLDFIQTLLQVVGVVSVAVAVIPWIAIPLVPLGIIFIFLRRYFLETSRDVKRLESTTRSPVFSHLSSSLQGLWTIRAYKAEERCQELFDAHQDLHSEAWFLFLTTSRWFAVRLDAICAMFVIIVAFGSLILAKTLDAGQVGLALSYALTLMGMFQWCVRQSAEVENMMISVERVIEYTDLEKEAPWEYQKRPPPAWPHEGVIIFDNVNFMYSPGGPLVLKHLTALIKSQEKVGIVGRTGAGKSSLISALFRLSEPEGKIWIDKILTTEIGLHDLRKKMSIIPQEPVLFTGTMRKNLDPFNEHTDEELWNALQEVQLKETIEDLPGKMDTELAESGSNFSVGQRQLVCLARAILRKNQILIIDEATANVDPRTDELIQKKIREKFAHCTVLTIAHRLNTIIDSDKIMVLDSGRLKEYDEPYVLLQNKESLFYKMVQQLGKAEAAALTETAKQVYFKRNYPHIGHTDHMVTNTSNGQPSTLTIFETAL
The experiment is described as follows: Inhibition of human MRP4 overexpressed in Sf9 cell membrane vesicles assessed as uptake of [3H]-estradiol-17beta-D-glucuronide in presence of ATP and GSH measured after 20 mins by membrane vesicle transport assay. It is filed as ADME, cell-based.

Counter-ions that a name gives are not always drawn.

Bile salt export pump, sequence (O95342 whole entry): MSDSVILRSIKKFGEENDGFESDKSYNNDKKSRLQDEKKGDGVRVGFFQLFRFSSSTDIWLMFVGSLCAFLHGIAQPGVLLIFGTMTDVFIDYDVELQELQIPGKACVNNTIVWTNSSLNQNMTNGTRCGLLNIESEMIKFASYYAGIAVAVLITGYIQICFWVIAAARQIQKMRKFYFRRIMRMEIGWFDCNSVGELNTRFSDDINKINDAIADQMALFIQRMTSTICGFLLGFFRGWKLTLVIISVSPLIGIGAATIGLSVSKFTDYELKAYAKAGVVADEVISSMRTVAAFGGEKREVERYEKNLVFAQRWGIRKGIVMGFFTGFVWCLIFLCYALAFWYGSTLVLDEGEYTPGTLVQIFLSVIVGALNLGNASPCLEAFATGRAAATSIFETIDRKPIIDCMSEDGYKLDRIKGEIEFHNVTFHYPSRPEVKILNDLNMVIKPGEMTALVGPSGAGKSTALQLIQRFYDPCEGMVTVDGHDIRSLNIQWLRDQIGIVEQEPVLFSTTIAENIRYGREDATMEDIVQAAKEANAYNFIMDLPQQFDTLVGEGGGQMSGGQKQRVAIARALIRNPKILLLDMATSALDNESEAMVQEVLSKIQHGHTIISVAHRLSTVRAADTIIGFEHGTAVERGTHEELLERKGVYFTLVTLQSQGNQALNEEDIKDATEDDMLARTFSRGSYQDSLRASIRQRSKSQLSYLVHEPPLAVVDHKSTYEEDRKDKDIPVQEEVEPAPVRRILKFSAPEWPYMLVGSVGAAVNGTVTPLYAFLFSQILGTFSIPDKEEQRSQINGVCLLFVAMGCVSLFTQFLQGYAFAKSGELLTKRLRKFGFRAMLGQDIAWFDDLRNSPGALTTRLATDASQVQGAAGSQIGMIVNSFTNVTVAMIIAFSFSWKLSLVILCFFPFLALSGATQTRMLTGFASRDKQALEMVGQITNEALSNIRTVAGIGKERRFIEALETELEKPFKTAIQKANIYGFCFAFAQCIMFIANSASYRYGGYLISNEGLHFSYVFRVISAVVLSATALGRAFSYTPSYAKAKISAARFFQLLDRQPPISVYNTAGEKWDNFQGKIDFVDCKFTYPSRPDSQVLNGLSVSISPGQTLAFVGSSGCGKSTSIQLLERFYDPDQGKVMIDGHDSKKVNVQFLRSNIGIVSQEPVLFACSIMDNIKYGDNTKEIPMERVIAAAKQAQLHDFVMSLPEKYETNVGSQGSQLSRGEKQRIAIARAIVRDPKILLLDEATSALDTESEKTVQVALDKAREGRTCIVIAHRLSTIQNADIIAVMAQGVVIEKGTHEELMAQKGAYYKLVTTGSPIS
ATP-binding cassette sub-family C member 3, sequence (O15438 whole entry): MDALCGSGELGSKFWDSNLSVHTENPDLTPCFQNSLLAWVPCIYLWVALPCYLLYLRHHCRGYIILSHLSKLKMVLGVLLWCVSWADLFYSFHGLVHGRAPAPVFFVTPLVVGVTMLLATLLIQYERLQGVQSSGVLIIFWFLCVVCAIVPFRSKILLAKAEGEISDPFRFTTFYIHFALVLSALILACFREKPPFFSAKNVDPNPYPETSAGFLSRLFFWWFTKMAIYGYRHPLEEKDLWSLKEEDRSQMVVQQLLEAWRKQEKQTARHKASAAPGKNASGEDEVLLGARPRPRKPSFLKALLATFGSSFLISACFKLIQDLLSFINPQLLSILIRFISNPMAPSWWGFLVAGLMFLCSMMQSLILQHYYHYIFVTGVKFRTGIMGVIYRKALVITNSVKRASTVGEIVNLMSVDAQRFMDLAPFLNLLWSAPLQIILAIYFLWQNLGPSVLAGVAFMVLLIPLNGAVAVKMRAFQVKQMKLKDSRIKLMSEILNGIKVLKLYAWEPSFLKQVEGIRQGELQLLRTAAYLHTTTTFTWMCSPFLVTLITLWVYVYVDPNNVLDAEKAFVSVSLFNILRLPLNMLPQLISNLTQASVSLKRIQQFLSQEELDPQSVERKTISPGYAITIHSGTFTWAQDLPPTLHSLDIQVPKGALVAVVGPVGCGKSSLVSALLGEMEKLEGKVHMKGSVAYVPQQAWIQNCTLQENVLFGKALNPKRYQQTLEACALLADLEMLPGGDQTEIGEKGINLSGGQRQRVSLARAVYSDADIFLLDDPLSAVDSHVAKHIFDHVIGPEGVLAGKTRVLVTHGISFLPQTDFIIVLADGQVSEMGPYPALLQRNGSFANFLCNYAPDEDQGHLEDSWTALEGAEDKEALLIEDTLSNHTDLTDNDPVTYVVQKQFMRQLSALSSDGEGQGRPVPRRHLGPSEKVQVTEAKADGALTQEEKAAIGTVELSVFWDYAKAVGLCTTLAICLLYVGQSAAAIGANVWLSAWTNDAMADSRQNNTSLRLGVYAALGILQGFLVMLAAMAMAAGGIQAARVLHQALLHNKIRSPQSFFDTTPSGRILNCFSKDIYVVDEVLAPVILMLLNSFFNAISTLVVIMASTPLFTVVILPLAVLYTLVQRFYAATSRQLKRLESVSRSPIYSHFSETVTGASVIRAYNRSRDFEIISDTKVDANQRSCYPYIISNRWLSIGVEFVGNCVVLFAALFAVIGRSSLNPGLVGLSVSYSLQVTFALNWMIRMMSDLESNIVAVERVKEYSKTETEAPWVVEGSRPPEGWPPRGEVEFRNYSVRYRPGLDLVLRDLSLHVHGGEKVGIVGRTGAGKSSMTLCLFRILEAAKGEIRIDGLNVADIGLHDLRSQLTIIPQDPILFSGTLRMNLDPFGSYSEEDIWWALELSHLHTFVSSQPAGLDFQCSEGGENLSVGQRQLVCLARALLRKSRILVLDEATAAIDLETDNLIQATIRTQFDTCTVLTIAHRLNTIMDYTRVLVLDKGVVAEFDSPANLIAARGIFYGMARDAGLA
ATP-binding cassette sub-family C member 2, sequence (Q92887 whole entry): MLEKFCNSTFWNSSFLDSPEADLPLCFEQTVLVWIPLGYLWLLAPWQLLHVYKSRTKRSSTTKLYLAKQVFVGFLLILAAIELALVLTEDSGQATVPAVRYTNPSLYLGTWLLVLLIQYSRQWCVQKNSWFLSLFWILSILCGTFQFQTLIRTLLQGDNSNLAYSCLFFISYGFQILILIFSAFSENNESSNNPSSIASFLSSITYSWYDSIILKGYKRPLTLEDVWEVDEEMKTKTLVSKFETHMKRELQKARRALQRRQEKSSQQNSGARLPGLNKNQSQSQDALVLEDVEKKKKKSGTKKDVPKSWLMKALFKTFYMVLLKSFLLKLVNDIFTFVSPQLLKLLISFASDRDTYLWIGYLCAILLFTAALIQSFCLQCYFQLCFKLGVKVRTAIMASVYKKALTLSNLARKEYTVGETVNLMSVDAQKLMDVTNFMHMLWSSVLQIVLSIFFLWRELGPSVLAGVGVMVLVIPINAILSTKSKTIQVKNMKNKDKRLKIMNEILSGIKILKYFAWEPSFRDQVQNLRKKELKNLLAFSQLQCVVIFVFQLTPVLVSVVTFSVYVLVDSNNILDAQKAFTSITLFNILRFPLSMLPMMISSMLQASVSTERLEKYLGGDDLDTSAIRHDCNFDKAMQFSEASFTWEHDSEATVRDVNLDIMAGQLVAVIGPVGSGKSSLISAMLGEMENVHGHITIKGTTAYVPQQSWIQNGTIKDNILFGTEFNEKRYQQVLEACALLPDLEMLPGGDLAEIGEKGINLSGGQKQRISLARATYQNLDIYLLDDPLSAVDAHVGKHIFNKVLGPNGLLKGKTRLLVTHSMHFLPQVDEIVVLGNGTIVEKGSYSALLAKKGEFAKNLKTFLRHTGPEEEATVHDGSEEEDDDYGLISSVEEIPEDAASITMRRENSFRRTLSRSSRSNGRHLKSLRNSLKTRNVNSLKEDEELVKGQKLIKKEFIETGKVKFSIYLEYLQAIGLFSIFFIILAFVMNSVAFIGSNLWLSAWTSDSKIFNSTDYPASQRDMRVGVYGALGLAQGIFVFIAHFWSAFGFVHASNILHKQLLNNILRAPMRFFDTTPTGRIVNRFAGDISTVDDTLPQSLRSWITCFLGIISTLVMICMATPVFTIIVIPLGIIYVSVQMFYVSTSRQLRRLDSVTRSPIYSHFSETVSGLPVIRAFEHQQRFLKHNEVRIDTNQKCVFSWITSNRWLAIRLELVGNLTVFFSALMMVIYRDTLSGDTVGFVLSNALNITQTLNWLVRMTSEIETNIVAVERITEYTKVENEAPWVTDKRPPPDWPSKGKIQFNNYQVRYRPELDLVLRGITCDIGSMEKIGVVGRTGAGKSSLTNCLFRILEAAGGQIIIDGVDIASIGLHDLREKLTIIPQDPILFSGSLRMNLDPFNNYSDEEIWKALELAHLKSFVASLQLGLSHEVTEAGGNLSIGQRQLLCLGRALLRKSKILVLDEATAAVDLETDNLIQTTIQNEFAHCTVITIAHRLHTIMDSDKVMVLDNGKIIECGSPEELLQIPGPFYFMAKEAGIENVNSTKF

For the compound `COc1ccc(CC2c3cc(OC)c(OC)cc3CC[N+]2(C)CCC(=O)OCCCCCOC(=O)CC[N+]2(C)CCc3cc(OC)c(OC)cc3C2Cc2ccc(OC)c(OC)c2)cc1OC` (stereo unspecified) [ATRACURIUM BESYLATE], the IC50 (at Bile salt export pump; in experiment [1]; in experiment [2]; in experiment [3]) was more than 133 µM in each case.

For the compound `CC(C)C(=O)OCC(=O)[C@@]12O[C@H](C3CCCCC3)O[C@@H]1C[C@H]1[C@@H]3CCC4=CC(=O)C=C[C@]4(C)[C@H]3[C@@H](O)C[C@@]12C` [CICLESONIDE], the concentration for half-maximal inhibition (IC50) (on Bile salt export pump; in experiment [1]; in experiment [2]; in experiment [3]) was more than 133 µM throughout.

Consider `CN1CCc2cccc3c2[C@H]1Cc1ccc(O)c(O)c1-3` [APOMORPHINE], for which the 50% inhibitory concentration (IC50) (at Bile salt export pump; in experiment [1]; in experiment [2]; in experiment [3]) was more than 133 µM in each case.

Regarding `ClC(Cl)(Cl)Cl` [CARBON TETRACHLORIDE], the IC50 (at Bile salt export pump; in experiment [1]; in experiment [2]; in experiment [3]) was more than 133 µM each time.

Regarding `CC1Cc2ccccc2N1NC(=O)c1ccc(Cl)c(S(N)(=O)=O)c1` (stereo unspecified) [INDAPAMIDE], the IC50 (on Bile salt export pump; in experiment [1]; in experiment [2]; in experiment [3]) was more than 133 µM throughout.

Consider `CC(=O)Nc1c(I)c(NC(C)=O)c(I)c(C(=O)O)c1I` [DIATRIZOIC ACID], for which the half-maximal inhibitory concentration (IC50) (on Bile salt export pump; in experiment [1]; in experiment [2]; in experiment [3]) was more than 133 µM throughout.

In the case of `CC1=C(/C=C/C(C)=C/C=C/C(C)=C/C(=O)O)C(C)(C)CCC1` [TRETINOIN], the IC50 (at Bile salt export pump; in experiment [1]; in experiment [2]; in experiment [3]) was more than 133 µM throughout.

On to `N[C@@H](Cc1ccc(O)c(O)c1)C(=O)O` [LEVODOPA], for which the IC50 (on Bile salt export pump; in experiment [1]; in experiment [2]; in experiment [3]) was more than 133 µM each time.

With `c1ccc(C2(c3ccccc3)CC2C2=NCCN2)cc1` (stereo unspecified) [CIFENLINE], the IC50 (on Bile salt export pump; in experiment [1]; in experiment [2]; in experiment [3]) was more than 133 µM each time.

As to `CN(C)CCC(c1ccc(Cl)cc1)c1ccccn1` (stereo unspecified) [CHLORPHENIRAMINE], the IC50 (on Bile salt export pump; in experiment [1]; in experiment [2]; in experiment [3]) was more than 133 µM throughout.

Consider `COc1ccc2cccc(CCNC(C)=O)c2c1` [AGOMELATINE], for which the IC50 (on Bile salt export pump; in experiment [1]; in experiment [2]; in experiment [3]) was more than 133 µM each time.

With `N=C(N)NC(=O)Cc1c(Cl)cccc1Cl` [GUANFACINE], the concentration for half-maximal inhibition (IC50) (on Bile salt export pump; in experiment [1]; in experiment [2]; in experiment [3]) was more than 133 µM throughout.

Take `CC(=O)Nc1ccc(/C=N/NC(N)=S)cc1` [AMITHIOZONE]: the IC50 (at Bile salt export pump; in experiment [1]; in experiment [2]; in experiment [3]) was more than 133 µM each time.

Regarding `COc1ccc(-c2ccc3cc(C(=O)O)ccc3c2)cc1C12CC3CC(CC(C3)C1)C2`, the IC50 (on Bile salt export pump; in experiment [1]; in experiment [2]; in experiment [3]) was more than 133 µM throughout.

Consider `CN(Cc1cnc2nc(N)nc(N)c2n1)c1ccc(C(=O)N[C@@H](CCC(=O)O)C(=O)O)cc1` [METHOTREXATE], for which the IC50 (on Bile salt export pump; in experiment [1]; in experiment [2]; in experiment [3]) was more than 133 µM each time.

On to `Cc1cc2c(s1)Nc1ccccc1N=C2N1CCN(C)CC1` [OLANZAPINE], for which the half-maximal inhibitory concentration (IC50) (at Bile salt export pump; in experiment [1]; in experiment [2]; in experiment [3]) was more than 133 µM throughout.

As for `O=C(NCCO[N+](=O)[O-])c1cccnc1` [NICORANDIL], the half-maximal inhibitory concentration (IC50) (at Bile salt export pump; in experiment [1]; in experiment [2]; in experiment [3]) was more than 133 µM each time.

`COc1cc2c3cc1Oc1cc(ccc1O)C[C@@H]1c4c(cc(OC)c(O)c4Oc4ccc(cc4)C[C@@H]3N(C)CC2)CC[N+]1(C)C` [TUBOCURARINE]: the IC50 was more than 133 µM on Bile salt export pump, more than 133 µM in experiment [1], more than 133 µM in experiment [2] and 9.6 µM in experiment [3].

Turning to `Oc1ccc(C2CNCCc3c2cc(O)c(O)c3Cl)cc1` (stereo unspecified) [FENOLDOPAM MESYLATE], the IC50 (at Bile salt export pump; in experiment [1]; in experiment [2]; in experiment [3]) was more than 133 µM throughout.

In the case of `CC[C@H]1OC(=O)[C@H](C)[C@@H](O[C@H]2C[C@@](C)(OC)[C@@H](O)[C@H](C)O2)[C@H](C)[C@@H](O[C@@H]2O[C@H](C)C[C@H](N(C)C)[C@H]2O)[C@](C)(OC)C[C@@H](C)C(=O)[C@H](C)[C@@H](O)[C@]1(C)O` [CLARITHROMYCIN], the IC50 (at Bile salt export pump; in experiment [1]; in experiment [2]; in experiment [3]) was more than 133 µM throughout.

Turning to `OCCN1CCN(CCCN2c3ccccc3Sc3ccc(Cl)cc32)CC1` [PERPHENAZINE], the half-inhibitory concentration (IC50) (on Bile salt export pump; in experiment [1]; in experiment [2]; in experiment [3]) was more than 133 µM in each case.

Take `CCn1cc(C(=O)O)c(=O)c2ccc(C)nc21` [NALIDIXIC ACID]: the concentration for half-maximal inhibition (IC50) on Bile salt export pump is more than 133 µM; in experiment [1], more than 133 µM; in experiment [2], more than 133 µM; in experiment [3], 57.5 µM.

Consider `O=P1(N(CCCl)CCCl)NCCCO1` (stereo unspecified) [CYCLOPHOSPHAMIDE ANHYDROUS], for which the 50% inhibitory concentration (IC50) (at Bile salt export pump; in experiment [1]; in experiment [2]; in experiment [3]) was more than 133 µM each time.

For `Cc1onc(-c2ccccc2)c1C(=O)N[C@@H]1C(=O)N2[C@@H]1SC(C)(C)[C@@H]2C(=O)O`, the concentration for half-maximal inhibition (IC50) (at Bile salt export pump; in experiment [1]; in experiment [2]; in experiment [3]) was more than 133 µM in each case.

Consider `CC(C)(C)c1ccc(C(O)CCCN2CCC(C(O)(c3ccccc3)c3ccccc3)CC2)cc1` (stereo unspecified) [TERFENADINE], for which the concentration for half-maximal inhibition (IC50) (at Bile salt export pump; in experiment [1]; in experiment [2]; in experiment [3]) was more than 133 µM throughout.

Consider `C[C@H]1C[C@@H]2[C@H]([C@@H](O)C[C@@]3(C)[C@H]2CC[C@]3(O)C(=O)CO)[C@@]2(C)C=CC(=O)C=C12` [METHYLPREDNISOLONE], for which the half-inhibitory concentration (IC50) on Bile salt export pump is more than 133 µM; in experiment [1], more than 133 µM; in experiment [2], more than 133 µM; in experiment [3] it was 41 µM.

For `CN(C)c1cc(NC(=O)CNC(C)(C)C)c(O)c2c1C[C@H]1C[C@H]3[C@H](N(C)C)C(O)=C(C(N)=O)C(=O)[C@@]3(O)C(O)=C1C2=O` [TIGECYCLINE], the IC50 (on Bile salt export pump; in experiment [1]; in experiment [2]; in experiment [3]) was more than 133 µM throughout.

As to `N[C@@H](CC(=O)N1CCn2c(nnc2C(F)(F)F)C1)Cc1cc(F)c(F)cc1F` [SITAGLIPTIN], the IC50 (on Bile salt export pump; in experiment [1]; in experiment [2]; in experiment [3]) was more than 133 µM throughout.

For the compound `CC(=O)O[C@H]1C[C@@H]2CC[C@@H]3[C@H](CC[C@@]4(C)[C@H]3C[C@H]([N+]3(C)CCCCC3)[C@@H]4OC(C)=O)[C@@]2(C)C[C@@H]1N1CCCCC1` [VECURONIUM BROMIDE], the half-inhibitory concentration (IC50) (on Bile salt export pump; in experiment [1]; in experiment [2]; in experiment [3]) was more than 133 µM throughout.

For the origin of these results see ChEMBL document CHEMBL4028801, “A multifactorial approach to hepatobiliary transporter assessment enables improved therapeutic compound development” (Toxicol Sci, 2013).
